Experimental data as given in patent publication US8846739B2, “TGR5 agonists” (Exelixis Patent Company LLC, priority 2009, dated 2014).

How the values were obtained:
h-TGR5 = target: T1, h-TGR5 (Homo sapiens, UniProt Q8TDU6); experiment: TGR5 cAMP Assay using Cisbio cAMP Dynamic 2 htrf assay kit; assay type: cell-based; conditions: hTGR5CRE-luc HEK 293 cells
T1 sequence (Q8TDU6 1-330): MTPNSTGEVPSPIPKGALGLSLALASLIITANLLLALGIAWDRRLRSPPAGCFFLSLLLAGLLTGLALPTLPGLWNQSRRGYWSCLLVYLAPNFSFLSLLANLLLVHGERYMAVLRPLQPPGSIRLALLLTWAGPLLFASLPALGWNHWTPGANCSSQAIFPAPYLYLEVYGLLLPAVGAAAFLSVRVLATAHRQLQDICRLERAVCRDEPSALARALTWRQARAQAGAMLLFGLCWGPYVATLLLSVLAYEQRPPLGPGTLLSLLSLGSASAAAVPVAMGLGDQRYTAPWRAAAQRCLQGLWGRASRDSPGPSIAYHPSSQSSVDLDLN

human TGR5 (h-TGR5) = target: T2, human TGR5 (h-TGR5) (Homo sapiens, UniProt Q8TDU6); experiment: TGR5/CRE-Luciferase Assay; assay type: cell-based; conditions: HEK 293 hTGR5/CRE-Luc cells, 6 hours incubation, read-out: CRE-Luc Agonist (EC50)
T2 sequence (Q8TDU6 1-330): T1 sequence (Q8TDU6 1-330)
How it was run: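 HEK 293 CRE-Luciferase cells stably expressing the receptor, plated in DMEM 18-20 h before assay, then exposed to serially diluted compounds (DMEM with 5% DMSO) for 6 h. Luciferase read-out after lysis; EC50 from dose-response.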

Compound | EC50 (h-TGR5) | EC50 (human TGR5 (h-TGR5))
COc1cc(C(C)(C)c2cnc(SCc3c(F)cc(C(=O)N[C@H]4CC[N+](C)(C)C4)cc3Cl)n2-c2ccc(F)cc2)ccc1Cl [Example 2f, (3S)-3-({[3-chloro-4-({[5-{1-[4-chloro-3-(methyloxy)phenyl]-1-methylethyl}-1-(4-fluorophenyl)-1H-imidazol-2-yl]thio}methyl)-5-fluorophenyl]carbonyl}amino)-1,1-dimethylpyrrolidinium] | < 100 nM | < 100 nM
COc1ccc(C(C)(C)c2cnc(SCc3c(F)cc(S(=O)(=O)NCCC[N+](C)(C)C)cc3F)n2-c2ccc(F)cc2)cc1Cl [Example 6n, 3-({[4-({[5-{1-[3-chloro-4-(methyloxy)phenyl]-1-methylethyl}-1-(4-fluorophenyl)-1H-imidazol-2-yl]thio}methyl)-3,5-difluorophenyl]sulfonyl}amino)-N,N,N-trimethylpropan-1-aminium] | < 100 nM | < 100 nM
COc1cc(C(C)(C)c2cnc(SCc3c(F)cc(S(=O)(=O)N(C)[C@H](CCC[N+](C)(C)C)C(=O)O)cc3Cl)n2-c2ccc(F)cc2)ccc1Cl [Compound 17d, (R)-4-carboxy-4-(3-chloro-4-((5-(2-(4-chloro-3-methoxyphenyl)propan-2-yl)-1-(4-fluorophenyl)-1H-imidazol-2-ylthio)methyl)-5-fluoro-N-methylphenylsulfonamido)-N,N,N-trimethylbutan-1-aminium 2,2,2-trifluoroacetate] | < 100 nM | < 100 nM
COc1ccc(CN(CCC[N+](C)(C)C)S(=O)(=O)c2cc(F)c(CSc3ncc(C(C)(C)c4ccc(Cl)c(OC)c4)n3-c3ccc(F)cc3)c(F)c2)cc1 [Compound 14ae, 3-({[4-({[5-{1-[4-chloro-3-(methyloxy)phenyl]-1-methylethyl}-1-(4-fluorophenyl)-1H-imidazol-2-yl]thio}methyl)-3,5-difluorophenyl]sulfonyl}{[4-(methyloxy)phenyl]methyl}amino)-N,N,N-trimethylpropan-1-aminium] | 100 to 1000 nM | < 100 nM
COc1cc(C(C)(C)c2cnc(SCc3c(F)cc(S(=O)(=O)N(C)CCC[N+](C)(C)C)cc3Cl)n2-c2ccc(F)cc2)ccc1F [Compound 12d, 3-(3-chloro-5-fluoro-4-((5-(2-(4-fluoro-3-methoxyphenyl)propan-2-yl)-1-(4-fluorophenyl)-1H-imidazol-2-ylthio)methyl)-N-methylphenylsulfonamido)-N,N,N-trimethylpropan-1-aminium 2,2,2-trifluoroacetate] | < 100 nM | < 100 nM
COc1cc(C(C)(C)c2cnc(COc3c(F)cc(C(=O)NCC[N+](C)(C)C)cc3Cl)n2-c2ccc(F)cc2)ccc1Cl [Example 1e, 2-({[3-chloro-4-({[5-{1-[4-chloro-3-(methyloxy)phenyl]-1-methylethyl}-1-(4-fluorophenyl)-1H-imidazol-2-yl]methyl}oxy)-5-fluorophenyl]carbonyl}amino)-N,N,N-trimethylethanaminium] | < 100 nM | < 100 nM
COc1cc(-n2c(C(C)(C)c3ccc(Cl)c(Cl)c3)cnc2SCc2c(F)cc(C(=O)NCC[N+]34CCN(CC3)CC4)cc2Cl)ccc1F [Example 2b, 1-{2-[({3-chloro-4-[({5-[1-(3,4-dichlorophenyl)-1-methylethyl]-1-[4-fluoro-3-(methyloxy)phenyl]-1H-imidazol-2-yl}thio)methyl]-5-fluorophenyl}carbonyl)amino]ethyl}-4-aza-1-azoniabicyclo[2.2.2]octane] | < 100 nM | < 100 nM
COc1cc(C(C)(C)c2cnc(SCc3c(F)cc(S(=O)(=O)N(C)[C@@H](CCCC[N+](C)(C)C)C(=O)O)cc3F)n2-c2ccc(F)cc2)ccc1Cl [Compound 17g, (S)-5-carboxy-5-(4-((5-(2-(4-chloro-3-methoxyphenyl)propan-2-yl)-1-(4-fluorophenyl)-1H-imidazol-2-ylthio)methyl)-3,5-difluoro-N-methylphenylsulfonamido)-N,N,N-trimethylpentan-1-aminium 2,2,2-trifluoroacetate] | < 100 nM | < 100 nM
CC[N+](C)(C)C1CCN(S(=O)(=O)c2cc(F)c(CSc3ncc(C(C)(C)c4ccc(Cl)c(OC)c4)n3-c3ccc(F)cc3)c(Cl)c2)CC1 [Compound 11j, 1-{[3-chloro-4-({[5-{1-[4-chloro-3-(methyloxy)phenyl]-1-methylethyl}-1-(4-fluorophenyl)-1H-imidazol-2-yl]thio}methyl)-5-fluorophenyl)sulfonyl}-N-ethyl-N,N-dimethylpiperidin-4-aminium] | < 100 nM | < 100 nM
CC[N+](CC)(CC)CCOc1cc(F)c(CSc2ncc(C(C)(C)c3ccc(Cl)c(OC)c3)n2-c2ccc(F)cc2)c(F)c1 [Compound 20a, 2-(4-((5(2-(4-chloro-3-methoxyphenyl)propan-2-yl)-(4-fluorophenyl)-1H-imidazol-2-ylthio)methyl)-3,5-difluorophenoxy)-N,N,N-triethylethanaminium chloride] | < 100 nM | < 100 nM
COC(=O)c1cc(-n2c(C(C)(C)c3ccc(Cl)c(OC)c3)cnc2SCc2c(F)cc(S(=O)(=O)NCCC[N+](C)(C)C)cc2F)ccc1F [Example 6g, 3-{[(4-{[(5-{1-[4-chloro-3-(methyloxy)phenyl]-1-methylethyl}-1-{4-fluoro-3-[(methyloxy)carbonyl]phenyl}-1H-imidazol-2-yl)thio]methyl}-3,5-difluorophenyl)sulfonyl]amino}-N,N,N-trimethylpropan-1-aminium] | 100 to 1000 nM | 100 to 1000 nM
COc1cc(C(C)(C)c2cnc(SCc3c(F)cc(S(=O)(=O)N4CC[C@@H]([N+](C)(C)C)C4)cc3Cl)n2-c2ccc(F)cc2)ccc1Cl [Compound 11i, (3R)-1-{[3-chloro-4-({[5-{1-[4-chloro-3-(methyloxy)phenyl]-1-methylethyl}-1-(4-fluorophenyl)-1H-imidazol-2-yl]thio}methyl)-5-fluorophenyl]sulfonyl}-N,N,N-trimethylpyrrolidin-3-aminium] | < 100 nM | < 100 nM
COc1cc(-n2c(C(C)(C)c3ccc(S(N)(=O)=O)c(Cl)c3)cnc2SCc2c(F)cc(S(=O)(=O)NCCC[N+](C)(C)C)cc2F)ccc1F [Example 6b, 3-{[(4-{[(5-{1-[4-(aminosulfonyl)-3-chlorophenyl]-1-methylethyl}-1-[4-fluoro-3-(methyloxy)phenyl]-1H-imidazol-2-yl)thio]methyl}-3,5-difluorophenyl)sulfonyl]amino}-N,N,N-trimethylpropan-1-aminium] | < 100 nM | < 100 nM
COc1cc(C(C)(C)c2cnc(CCc3c(F)cc(S(=O)(=O)N(CCC[N+](C)(C)C)[C@H](C)C(=O)O)cc3Cl)n2-c2ccc(F)cc2)ccc1Cl [Compound 17m, (R)-3-(N-(1-carboxyethyl)-3-chloro-4-(2-(5-(2-(4-chloro-3-methoxyphenyl)propan-2-yl)-1-(4-fluorophenyl)-1H-imidazol-2-yl)ethyl)-5-fluorophenylsulfonamido)-N,N,N-trimethylpropan-1-aminium 2,2,2-trifluoroacetate] | < 100 nM | < 100 nM
COc1cc(C(C)(C)c2cnc(SCc3c(F)cc(S(=O)(=O)N(C)[C@@H](CCC[N+](C)(C)C)C(=O)O)cc3F)n2-c2ccc(F)cc2)cc(F)c1F [Compound 14f, (S)-4-carboxy-4-(4-((5-(2-(3,4-difluoro-5-methoxyphenyl)propan-2-yl)-1-(4-fluorophenyl)-1H-imidazol-2-ylthio)methyl)-3,5-difluoro-N-methylphenylsulfonamido)-N,N-trimethylbutan-1-aminium chloride] | < 100 nM | < 100 nM
CC[N+](C)(C)CCCN(C)S(=O)(=O)c1cc(F)c(CSc2ncc(C(C)(C)c3ccc(F)c(OC)c3)n2-c2ccc(F)cc2)c(Cl)c1 [Compound 14m, 3-[{[3-chloro-5-fluoro-4-({[5-{1-[4-fluoro-3-(methyloxy)phenyl]-1-methylethyl}-1-(4-fluorophenyl)-1H-imidazol-2-yl]thio}methyl)phenyl]sulfonyl} (methyl)amino]-N-ethyl-N,N-dimethylpropan-1-aminium] | < 100 nM | < 100 nM
COc1cc(C(C)(C)c2cnc(SCc3c(F)cc(S(=O)(=O)N(CCC[N+](C)(C)C)[C@H](C(=O)O)[C@@H](C)O)cc3Cl)n2-c2ccc(F)cc2)ccc1Cl [Compound 14ac, 3-([(1S,2R)-1-carboxy-2-hydroxypropyl]{[3-chloro-4-({[5-{1-[4-chloro-3-(methyloxy)phenyl]-1-methylethyl}-1-(4-fluorophenyl)-1H-imidazol-2-yl]thio}methyl)-5-fluorophenyl]sulfonyl}amino)-N,N,N-trimethylpropan-1-aminium] | < 100 nM | < 100 nM
CC[N+](CC)(CC)CCCNS(=O)(=O)c1cc(F)c(CSc2ncc(C(C)(C)c3ccc(Cl)c(OC)c3)n2-c2ccc(F)cc2)c(Cl)c1 [Example 6c, 3-({[3-chloro-4-({[5-{1-[4-chloro-3-(methyloxy)phenyl]-1-methylethyl}-1-(4-fluorophenyl)-1H-imidazol-2-yl]thio}methyl)-5-fluorophenyl]sulfonyl}amino)-N,N,N-triethylpropan-1-aminium] | < 100 nM | < 100 nM
